Experimental data as given in PubChem BioAssay (NCI).
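The compound was tested at five concentrations on cells cultured in 96-well plates, with a 48-hour exposure period. Here, GI50 denotes the concentration required for 50% inhibition of growth. At the TGI there is no net growth.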

Key:
Assay in all cases: NCI-60 cell line screen, 48 h
MDA-MB-468 breast = test system: MDA-MB-468 breast
HCC-2998 colon = test system: HCC-2998 colon
SNB-75 CNS = test system: SNB-75 CNS
A498 renal = test system: A498 renal
RXF 393 renal = test system: RXF 393 renal
NCI-H226 lung = test system: NCI-H226 lung
SF-295 CNS = test system: SF-295 CNS
OVCAR-3 ovarian = test system: OVCAR-3 ovarian
SW-620 colon = test system: SW-620 colon
UACC-257 melanoma = test system: UACC-257 melanoma
HCT-15 colon = test system: HCT-15 colon
CAKI-1 renal = test system: CAKI-1 renal
DU-145 prostate = test system: DU-145 prostate
MCF7 breast = test system: MCF7 breast
HOP-62 NSCLC = test system: HOP-62 NSCLC
T-47D breast = test system: T-47D breast
HL-60(TB) leukemia = test system: HL-60(TB) leukemia
PC-3 prostate = test system: PC-3 prostate
CCRF-CEM leukemia = test system: CCRF-CEM leukemia
IGROV1 ovarian = test system: IGROV1 ovarian
M14 melanoma = test system: M14 melanoma
KM12 colon = test system: KM12 colon
MALME-3M melanoma = test system: MALME-3M melanoma
TK-10 renal = test system: TK-10 renal
SF-539 CNS = test system: SF-539 CNS
OVCAR-8 ovarian = test system: OVCAR-8 ovarian
OVCAR-4 ovarian = test system: OVCAR-4 ovarian
SK-MEL-2 melanoma = test system: SK-MEL-2 melanoma
HCT-116 colon = test system: HCT-116 colon
ACHN renal = test system: ACHN renal
SR leukemia = test system: SR leukemia
MOLT-4 leukemia = test system: MOLT-4 leukemia
UO-31 renal = test system: UO-31 renal
U251 CNS = test system: U251 CNS
NCI-H522 lung = test system: NCI-H522 lung
NCI-H460 lung = test system: NCI-H460 lung
HOP-92 NSCLC = test system: HOP-92 NSCLC
RPMI-8226 leukemia = test system: RPMI-8226 leukemia
HT29 colon = test system: HT29 colon
786-0 renal = test system: 786-0 renal
NCI-H23 lung = test system: NCI-H23 lung
OVCAR-5 ovarian = test system: OVCAR-5 ovarian
SN12C renal = test system: SN12C renal
MDA-MB-231 breast = test system: MDA-MB-231 breast
SK-MEL-28 melanoma = test system: SK-MEL-28 melanoma
SK-MEL-5 melanoma = test system: SK-MEL-5 melanoma
A549 NSCLC = test system: A549 NSCLC
SNB-19 CNS = test system: SNB-19 CNS
LOX IMVI melanoma = test system: LOX IMVI melanoma
UACC-62 melanoma = test system: UACC-62 melanoma
MDA-MB-435 = test system: MDA-MB-435
COLO 205 colon = test system: COLO 205 colon
SK-OV-3 ovarian = test system: SK-OV-3 ovarian
SF-268 CNS = test system: SF-268 CNS
EKVX NSCLC = test system: EKVX NSCLC
K-562 leukemia = test system: K-562 leukemia
BT-549 breast = test system: BT-549 breast

## COc1cc(CSc2nc3ccc(C)cc3c(=O)n2Cc2ccccc2)cc(OC)c1OC
MDA-MB-468 breast
  GI50: 0.479 µM
  TGI: 3.01 µM

## CN1CCN(c2ccc3nc(-c4cc(C(C)(C)C)c(O)c(C(C)(C)C)c4)[nH]c3c2)CC1
MDA-MB-468 breast
  GI50: 1.92 µM
  TGI: 3.76 µM

## Cn1c(COC(=O)N2CCCCC2)nc2c(N3CCOCC3)nc(-c3ccccc3)nc21
MDA-MB-468 breast
  GI50: 0.656 µM
  TGI: 2.19 µM

## C(=C1c2ccccc2-c2ccccc21)c1ccccn1
MDA-MB-468 breast
  GI50: 2.64 µM
  TGI: 14.7 µM

## Oc1ccc(CSc2nnc(-c3ccccc3)o2)c2cccnc12
MDA-MB-468 breast
  GI50: 2.21 µM
  TGI: > 100 µM

## CS(=O)(=O)CCNCc1ccc(-c2ccc3ncnc(Nc4ccc(OCc5cccc(C(F)(F)F)c5)cc4)c3c2)o1
MDA-MB-468 breast
  GI50: 3.39 µM
  TGI: 8.6 µM

## CCCCCCCCCCCCCCCc1cc(O)ccc1N
MDA-MB-468 breast
  GI50: 2.04 µM
  TGI: 6.3 µM

## CC1(C)N=C(N)N=C(N)N1c1ccc(F)c(C(F)(F)F)c1
MDA-MB-468 breast
  GI50: 1.47 µM
  TGI: > 100 µM

## CC(C)(C)c1ccc([I+]c2ccc(C(C)(C)C)cc2)cc1
MDA-MB-468 breast
  GI50: 0.4 µM
  TGI: 2.28 µM

## O=C(Nc1cc(C(F)(F)F)cc(C(F)(F)F)c1)Nc1ccc2oc(=O)ccc2c1
MDA-MB-468 breast
  GI50: 0.641 µM
  TGI: 4.41 µM

## COc1ccc2[nH]cc(-c3nc(-c4cn(C)c5ccncc45)cs3)c2c1
MDA-MB-468 breast
  GI50: 1.97 µM
  TGI: 3.77 µM

## COc1ccc2c(c1)c(C1(c3cn(C)c4ccc(OC)cc34)C(=O)Nc3ccc(F)cc31)cn2C
MDA-MB-468 breast
  GI50: 3.4 µM
  TGI: 41.4 µM

## Brc1ccc([I+]c2ccc(Br)cc2)cc1
MDA-MB-468 breast
  GI50: 0.541 µM
  TGI: 3.52 µM

## CCCN(CCC)c1ccc(CO)c(C)c1
MDA-MB-468 breast
  GI50: 0.962 µM
  TGI: 4.32 µM

## COc1ccc(O)c(C(=O)c2ccc(C(=O)O[C@@H]3CCCNC[C@H]3NC(=O)c3ccncc3)cc2)c1F
MDA-MB-468 breast
  GI50: 0.511 µM
  TGI: > 23.7 µM

## Oc1ccccc1-c1nnc(SCc2ccc(O)c3ncccc23)n1-c1ccccc1
MDA-MB-468 breast
  GI50: 0.349 µM
  TGI: 9.29 µM

## CCC(Sc1nnc2c3ccccc3n(CC)c2n1)C(=O)Nc1ccccc1OC (stereo not given)
MDA-MB-468 breast
  GI50: 1.37 µM
  TGI: 4.23 µM

## Nc1cc(-c2ccccc2)ccc1O
MDA-MB-468 breast
  GI50: 42.3 µM
  TGI: > 100 µM

## ClCCN(CCCl)c1ccc(-n2cnc3c(Cl)ncnc32)cc1
MDA-MB-468 breast
  GI50: 1.97 µM
  TGI: 4.18 µM

## O=C(COc1cccc(/C=C2\COc3ccccc3C2=O)c1)Nc1nccs1
MDA-MB-468 breast
  GI50: 1.91 µM
  TGI: 3.54 µM

## COCCOC(=O)C1=C(C)NC2=C(C(=O)CC(c3ccccc3OC)C2)C1c1cccc(O)c1 (stereo not given)
MDA-MB-468 breast
  GI50: 3.92 µM
  TGI: 21.9 µM

## Cn1c(=O)cc2c3c(c(NCCCO)ccc31)C(=O)c1ccccc1-2
MDA-MB-468 breast
  GI50: 2.11 µM
  TGI: 9.66 µM

## C#C[C@]1(O)CC[C@H]2[C@@H]3CC=C4c5sc(-c6ccc(F)cn6)nc5CC[C@]4(C)[C@H]3CC[C@@]21C
MDA-MB-468 breast
  GI50: 2.99 µM
  TGI: 13.7 µM

## COc1cnc2c(c1)C(=O)c1c-2n(CCCn2ccnc2)c(=O)c2cc(Cl)ccc12
MDA-MB-468 breast
  GI50: 0.0252 µM
  TGI: 0.0855 µM

## CN1C(=O)CNC(=O)[C@H](NC(=O)c2nc3ccccc3cc2O)CSSC[C@H]1C(=O)NCCc1nc2ccccc2cc1O
MDA-MB-468 breast
  GI50: 1.32 µM
  TGI: 11 µM

## CCC[C@H](N[C@@H]1CCc2cc(F)cc(F)c2C1)C(=O)Nc1cn(C(C)(C)CNCC(C)(C)C)cn1
MDA-MB-468 breast
  GI50: 3.48 µM
  TGI: 29.7 µM

## COC(CCP(=O)(c1ccccc1)c1ccccc1)(C(=O)c1ccccc1)c1ccccc1 (stereo not given)
MDA-MB-468 breast
  GI50: 2.05 µM
  TGI: 11.7 µM

## CCN(CC)c1ccc2c(c1)Oc1nc(N)c(C#N)c(N)c1C2Sc1ccc(SC)cc1 (stereo not given)
MDA-MB-468 breast
  GI50: 1.94 µM
  TGI: 3.64 µM

## COc1cc(/C=C/C(=O)c2ccc(S(=O)(=O)NCCNc3nc(N(C)C)nc(N4CCOCC4)n3)cc2)cc(OC)c1OC
HCC-2998 colon
  GI50: 1.8 µM
  TGI: 3.26 µM
SNB-75 CNS
  GI50: 1.56 µM
  TGI: 15.5 µM
A498 renal
  GI50: 14.2 µM
  TGI: 27.4 µM
RXF 393 renal
  GI50: 1.22 µM
  TGI: 3.24 µM
NCI-H226 lung
  GI50: 11.4 µM
  TGI: 28.8 µM
SF-295 CNS
  GI50: 3.04 µM
  TGI: 11.9 µM
OVCAR-3 ovarian
  GI50: 2.02 µM
  TGI: 4.23 µM
SW-620 colon
  GI50: 1.9 µM
  TGI: 3.75 µM
UACC-257 melanoma
  GI50: 5.86 µM
  TGI: 18.5 µM
HCT-15 colon
  GI50: 1.82 µM
  TGI: 3.91 µM
CAKI-1 renal
  GI50: 10.6 µM
  TGI: 23.3 µM
DU-145 prostate
  GI50: 3.31 µM
  TGI: 11.6 µM
MCF7 breast
  GI50: 1.64 µM
  TGI: 3.98 µM
HOP-62 NSCLC
  GI50: 2.66 µM
  TGI: 8.72 µM
T-47D breast
  GI50: 5.74 µM
  TGI: 23.3 µM
HL-60(TB) leukemia
  GI50: 1.97 µM
  TGI: 7.34 µM
PC-3 prostate
  GI50: 3.76 µM
  TGI: 13.6 µM
CCRF-CEM leukemia
  GI50: 2.07 µM
  TGI: 7.25 µM
IGROV1 ovarian
  GI50: 2.6 µM
  TGI: 7.54 µM
M14 melanoma
  GI50: 2.18 µM
  TGI: 6.34 µM
KM12 colon
  GI50: 1.7 µM
  TGI: 3.33 µM
MALME-3M melanoma
  GI50: 1.97 µM
  TGI: 4.31 µM
TK-10 renal
  GI50: 13.1 µM
  TGI: 25.9 µM
SF-539 CNS
  GI50: 1.81 µM
  TGI: 3.37 µM
OVCAR-8 ovarian
  GI50: 2.3 µM
  TGI: 6.07 µM
OVCAR-4 ovarian
  GI50: 2.21 µM
  TGI: 6.35 µM
SK-MEL-2 melanoma
  GI50: 10.7 µM
  TGI: 22.9 µM
HCT-116 colon
  GI50: 1.56 µM
  TGI: 3.04 µM
MDA-MB-468 breast
  GI50: 1.69 µM
  TGI: 3.36 µM
ACHN renal
  GI50: 1.78 µM
  TGI: 3.46 µM
SR leukemia
  GI50: 1.88 µM
  TGI: 7.84 µM
MOLT-4 leukemia
  GI50: 2.23 µM
  TGI: 9.28 µM
UO-31 renal
  GI50: 1.57 µM
  TGI: 3.15 µM
U251 CNS
  GI50: 1.54 µM
  TGI: 2.92 µM
NCI-H522 lung
  GI50: 1.66 µM
  TGI: 3.25 µM
NCI-H460 lung
  GI50: 3.17 µM
  TGI: 10.4 µM
HOP-92 NSCLC
  GI50: 7.27 µM
  TGI: 25.7 µM
RPMI-8226 leukemia
  GI50: 1.39 µM
  TGI: 4.66 µM
HT29 colon
  GI50: 1.72 µM
  TGI: 3.19 µM
786-0 renal
  GI50: 1.89 µM
  TGI: 3.68 µM
NCI-H23 lung
  GI50: 3.09 µM
  TGI: 12.3 µM
OVCAR-5 ovarian
  GI50: 2.83 µM
  TGI: 7.57 µM
SN12C renal
  GI50: 2.72 µM
  TGI: 8.71 µM
MDA-MB-231 breast
  GI50: 2.9 µM
  TGI: 7.55 µM
SK-MEL-28 melanoma
  GI50: 2.12 µM
  TGI: 4.8 µM
SK-MEL-5 melanoma
  GI50: 7.9 µM
  TGI: 20.7 µM
A549 NSCLC
  GI50: 3.55 µM
  TGI: 14 µM
SNB-19 CNS
  GI50: 4.28 µM
  TGI: 16.2 µM
LOX IMVI melanoma
  GI50: 1.64 µM
  TGI: 3.07 µM
UACC-62 melanoma
  GI50: 2.14 µM
  TGI: 5.54 µM
MDA-MB-435
  GI50: 1.9 µM
  TGI: 4.02 µM
COLO 205 colon
  GI50: 2.14 µM
  TGI: 5.03 µM
SK-OV-3 ovarian
  GI50: 14.3 µM
  TGI: 27.4 µM
SF-268 CNS
  GI50: 3.16 µM
  TGI: 12.5 µM
EKVX NSCLC
  GI50: 3.74 µM
  TGI: 19.8 µM
K-562 leukemia
  GI50: 1.46 µM
  TGI: > 100 µM
BT-549 breast
  GI50: 2.01 µM
  TGI: 3.73 µM

## COc1cccc(/C=N\Nc2ccc([N+](=O)[O-])cn2)c1O
MDA-MB-468 breast
  GI50: 2.27 µM
  TGI: 6.64 µM

## COc1ccc(-c2n[nH]nc2-c2csc3ccccc23)cc1OC
MDA-MB-468 breast
  GI50: 0.631 µM
  TGI: 10.7 µM

## O=C1OC(c2ccc(O)c(Cl)c2)(c2ccc(O)c(Cl)c2)c2ccc(Br)c3cccc1c23 (tested in a mixture with another compound)
MDA-MB-468 breast
  GI50: 14.6 µM
  TGI: 34.1 µM

## C#C[C@]1(O)CC[C@H]2[C@@H]3CC=C4c5sc(N=C(N)N)nc5CC[C@]4(C)[C@H]3CC[C@@]21C
MDA-MB-468 breast
  GI50: 0.741 µM
  TGI: 2.2 µM

## CCCCC(=O)N/N=C/c1cc(I)cc(I)c1O
MDA-MB-468 breast
  GI50: 2.85 µM
  TGI: 18.4 µM
